# Test results published in patent publication US20130267476A1, “Pesticidal Active Mixtures Comprising Pyrazole Compounds” (BASF SE, priority 2010, published 2013).
# Where “and” joins values, the source holds several entries; their conditions need not be identical. Equal values may be shown once. Read-outs that look alike come from different tables or passages of the source.
# Legend:
# [1] = system: green peach aphid (Myzus persicae); assay: Test 2—Control of Green Peach Aphid (artificial diet under membrane, systemic); assay type: in vivo; details: 3 days
# Description: Test 2—Control of Green Peach Aphid
# For evaluating control of green peach aphid (Myzus persicae) through systemic means the test unit consisted of 96-well-microtiter plates containing liquid artificial diet under an artificial membrane.
# The compounds or mixtures were formulated using a solution containing 75% water and 25% DMSO. Different concentrations of formulated compounds or mixtures were pipetted into the aphid diet, using a custom built pipetter, at two replications.
# (§1) For experimental mixtures in these tests identical volumes of both mixing partners at the desired concentrations respectively, were mixed together.
# After application, 5-8 adult aphids were placed on the artificial membrane inside the microtiter plate wells. The aphids were then allowed to suck on the treated aphid diet and incubated at 23±1° C., 50±5% RH for 3 days. Aphid mortality and fecundity was then visually assessed.
# [2] = system: vetch aphid (Megoura viciae); assay: Test 1—Control of Vetch Aphid (leaf disks, 24-well microtiter plates); assay type: in vivo; details: 5 days
# Protocol: Test 1—Control of Vetch Aphid
# For evaluating control of vetch aphid (Megoura viciae) through contact or systemic means the test unit consisted of 24-well-microtiter plates containing broad bean leaf disks.
# The compounds or mixtures were formulated using a solution containing 75% water and 25% Dimethylsulfoxide (DMSO). Different concentrations of formulated compounds or mixtures were sprayed onto the leaf disks at 2.5 μl, using a custom built micro atomizer, at two replications.
# as §1
# After application, the leaf disks were air-dried and 5-8 adult aphids placed on the leaf disks inside the microtiter plate wells. The aphids were then allowed to suck on the treated leaf disks and incubated at 23±1° C., 50±5% relative humidity (RH) for 5 days. Aphid mortality and fecundity was then visually assessed.
# [3] = system: boll weevil (Anthonomus grandis); assay: Test 3—Control of Boll Weevil (insect diet with eggs); assay type: in vivo; details: 5 days
# Protocol: Test 3—Control of Boll Weevil
# For evaluating control of boll weevil (Anthonomus grandis) the test unit consisted of 24-well-microtiter plates containing an insect diet and 20-30 A. grandis eggs.
# The compounds or mixtures were formulated using a solution containing 75% water and 25% DMSO. Different concentrations of formulated compounds or mixtures were sprayed onto the insect diet at 20 μl, using a custom built micro atomizer, at two replications.
# as §1
# After application, microtiter plates were incubated at 23±1° C., 50±5% RH for 5 days. Egg and larval mortality was then visually assessed.
# Pyricularia oryzae = assay type: cell-based; details: 7 days after inoculation
# Alternaria solani = assay: Test 8—Activity Against Early Blight on Tomatoes Caused by Alternaria solani (microtest); assay type: cell-based; details: 7 days after inoculation
# Description: (§2) The active compounds were formulated separately as a stock solution having a concentration of 10000 ppm in dimethyl sulfoxide.
# (§3) The measured parameters were compared to the growth of the active compound-free control variant (100%) and the fungus-free and active compound-free blank value to determine the relative growth in % of the pathogens in the respective active compounds. These percentages were converted into efficacies.
# Test 8—Activity Against Early Blight on Tomatoes Caused by Alternaria solani
# (§4) The stock solutions were mixed according to the ratio, pipetted onto a micro titer plate (MTP) and diluted with water to the stated concentrations. A spore suspension of Alternaria solani in an aqueous biomalt solution was then added. The plates were placed in a water vapor-saturated chamber at a temperature of 18° C. Using an absorption photometer, the MTPs were measured at 405 nm 7 days after the inoculation.
# [4] = system: tobacco budworm (Heliothis virescens); assay: Test 5—Control of Tobacco Budworm (insect diet with eggs); assay type: in vivo; details: 5 days
# Protocol: Test 5—Control of Tobacco Budworm
# For evaluating control of tobacco budworm (Heliothis virescens) the test unit consisted of 96-well-microtiter plates containing an insect diet and 15-25 H. virescens eggs.
# The compounds or mixtures were formulated using a solution containing 75% water and 25% DMSO. Different concentrations of formulated compounds or mixtures were sprayed onto the insect diet at 10 μl, using a custom built micro atomizer, at two replications.
# as §1
# (§5) After application, microtiter plates were incubated at 28±1° C., 80±5% RH for 5 days. Egg and larval mortality was then visually assessed.
# [5] = system: Mediterranean fruitfly (Ceratitis capitata); assay: Test 4—Control of Mediterranean Fruitfly (insect diet with eggs); assay type: in vivo; details: 5 days
# Protocol: Test 4—Control of Mediterranean Fruitfly
# For evaluating control of Mediterranean fruitfly (Ceratitis capitata) the test unit consisted of 96-well-microtiter plates containing an insect diet and 50-80 C. capitata eggs.
# The compounds or mixtures were formulated using a solution containing 75% water and 25% DMSO. Different concentrations of formulated compounds or mixtures were sprayed onto the insect diet at 5 μl, using a custom built micro atomizer, at two replications.
# as §1, §5
# Septoria tritici = assay: Test 9—Activity Against Leaf Blotch on Wheat Caused by Septoria tritici (microtest); assay type: cell-based; details: 7 days after inoculation
# Description: as §2, §3
# Test 9—Activity Against Leaf Blotch on Wheat Caused by Septoria tritici
# as §4, with “SepCoria triticiin” for “Alternaria solani in”
# Botrytis cinerea = assay: Test 6—Activity Against the Grey Mold Botrytis cinerea in the Microtiterplate Test; assay type: cell-based; details: 7 days after inoculation
# Description: as §2, §3
# Test 6—Activity Against the Grey Mold Botrytis cinerea in the Microtiterplate Test
# as §4, with “Botrci cinerea” for “Alternaria solani”
# [6] = 0 + 20 ppm (second compound alone)
# [7] = 2 + 0 ppm (first compound alone)
# [8] = 10 + 0 ppm (first compound alone)
# [9] = 50 + 0 ppm (first compound alone)
# [10] = 0 + 0.08 ppm (second compound alone)
# [11] = 0 + 0.4 ppm (second compound alone)
# [12] = 0 + 10 ppm (second compound alone)
# [13] = 0 + 2 ppm (second compound alone)
compound,measurement,setting,value
"N#CCNC(=O)c1cnccc1C(F)(F)F [Flonicamid, flonicamid]",Average Control %,[1]; 0 + 4 ppm (second compound alone),0%
same,Average Control %,[2]; [6],25%
same,Average Control %,[3]; [6],0%
CN(C(=O)c1cnn(C)c1C(F)F)c1cccnc1 [I-17],Average Control %,[2]; [7],0%
same,Observed efficacy %,Pyricularia oryzae; 63 ppm,0%
same,Observed efficacy %,Alternaria solani; 63 ppm,4%
"CC1=NNC(=O)N(/N=C/c2cccnc2)C1 [Pymetrozine, pymetrozine]",Average Control %,[4]; 0 + 400 ppm (second compound alone),50%
Cc1c(C(=O)N(C)c2ccnnc2)cnn1C(C)C [I-52],Average Control %,[1]; 0.08 + 0 ppm (first compound alone),0%
same,Average Control %,[1]; [7],25% and 50%
same,Average Control %,[2]; [8],50% and 25%
same,Observed efficacy %,Pyricularia oryzae; 63 ppm,0%
same,Average Control %,[3]; [7],0%
same,Average Control %,[3]; [8],0%
same,Average Control %,[3]; [9],0%
same,Average Control %,[5]; [9],0%
same,Observed efficacy %,Septoria tritici; 4 ppm,18%
same,Observed efficacy %,Septoria tritici; 16 ppm,18%
same,Observed efficacy %,Botrytis cinerea; 63 ppm,4%
same,Observed efficacy %,Alternaria solani; 63 ppm,0%
"CC(c1ccc(C(F)(F)F)nc1)S(C)(=O)=NC#N (stereo not shown) [Sulfoxaflor, sulfoxaflor]",Average Control %,[1]; 0 + 0.0064 ppm (second compound alone),0%
C[C@]1(COC(=O)CC2CC2)[C@@H]2C[C@H](OC(=O)CC3CC3)[C@@]3(C)Oc4cc(-c5cccnc5)oc(=O)c4[C@H](O)[C@@H]3[C@@]2(C)CC[C@@H]1OC(=O)CC1CC1 [A27.2],Average Control %,[1]; 0 + 0.0008 ppm (second compound alone),0%
same,Average Control %,[1]; 0 + 0.004 ppm (second compound alone),50%
"O=[N+]([O-])NC1=NCCN1Cc1ccc(Cl)nc1 [Imidacloprid, imidacloprid]",Average Control %,[2]; 0 + 0.016 ppm (second compound alone),0%
same,Average Control %,[2]; [10],0%
same,Average Control %,[2]; [11],25%
same,Average Control %,[5]; [12],0%
abamectin,Average Control %,[2]; [10],25%
"CC(C)(C)C(O)(CCc1ccc(Cl)cc1)Cn1cncn1 (stereo not shown) [Tebuconazole, 1-(4-chlorophenyl)-4,4-dimethyl-3-[1,2,4]triazol-1-ylmethylpentan-3-ol]",Observed efficacy %,Septoria tritici; 0.25 ppm,57%
"N#Cc1nn(-c2c(Cl)cc(C(F)(F)F)cc2Cl)c(N)c1[S+]([O-])C(F)(F)F (stereo not shown) [Fipronil, fipronil]",Average Control %,[1]; [13],0%
same,Average Control %,[2]; [13],0%
"CNC(=O)c1cc(Cl)cc(C)c1NC(=O)c1cc(Br)nn1-c1ncccc1Cl [Chloranthraniliprole, chloranthraniliprole]",Average Control %,[1]; [11],0%
same,Average Control %,[2]; [12],25%
same,Average Control %,[3]; [11],25%
same,Average Control %,[5]; [12],0%
"CCOC(=O)OC1=C(c2cc(C)ccc2C)C(=O)N[C@]12CC[C@@H](OC)CC2 [Spirotetramat, spirotetramat]",Average Control %,[1]; 0 + 3.2 ppm (second compound alone),0%
same,Average Control %,[1]; 0 + 16 ppm (second compound alone),0%
Cc1c(C(=O)N(C)c2ccnnc2)cnn1CC(F)(F)F [I-76],Average Control %,[1]; 0.4 + 0 ppm (first compound alone),0%
same,Average Control %,[1]; [7],0%
same,Average Control %,[1]; [9],50%
same,Average Control %,[2]; [7],0%
same,Average Control %,[2]; [8],0%
same,Average Control %,[2]; [9],0%
same,Average Control %,[5]; [8],0%
same,Observed efficacy %,Septoria tritici; 1 ppm,11%
same,Average Control %,[4]; [9],0%
"CN1COCN(Cc2cnc(Cl)s2)/C1=N\[N+](=O)[O-] [Thiamethoxam, thiamethoxam]",Average Control %,[2]; [13],25%
same,Average Control %,[5]; [12],25%
"CC1(C)C(C=C(Cl)Cl)C1C(=O)OC(C#N)c1cccc(Oc2ccccc2)c1 (stereo not drawn) [α-cypermethrin, alpha-cypermethrin]",Average Control %,[2]; [11],25%
same,Average Control %,[2]; [13],0%
same,Average Control %,[3]; [11],25%
"OC(Cc1ccccc1Cl)(Cn1nc[nH]c1=S)C1(Cl)CC1 (stereo not shown) [Prothioconazole, 2-[2-(1-chlorocyclopropyl)-3-(2-chlorophenyl)-2-hydroxypropyl]-2,4-dihydro[1,2,4]triazole-3-thione]",Observed efficacy %,Pyricularia oryzae; 0.25 ppm,15%
same,Observed efficacy %,Botrytis cinerea; 0.25 ppm,45%
same,Observed efficacy %,Alternaria solani; 0.25 ppm,22%
"COC(=O)N(OC)c1ccccc1COc1ccn(-c2ccc(Cl)cc2)n1 [Pyraclostrobin, methyl N-{2-[1-(4-chlorophenyl)-1H-pyrazol-3-yloxymethyl]phenyl}(N-methoxy)carbamate]",Observed efficacy %,Septoria tritici; 0.004 ppm,46%
"CON=C(C(=O)OC)c1ccccc1CON=C(C)c1cccc(C(F)(F)F)c1 [Trifloxystrobin, methyl (E)-methoxyimino-{(E)-α-[1-(α,α,α-trifluoro-mtolyl)ethylideneaminooxy]-o-tolyl}acetate]",Observed efficacy %,Septoria tritici; 0.016 ppm,71%
